Experimental data as given in ChEMBL document CHEMBL1821689, “1,6-Disubstituted indole derivatives as selective human neuronal nitric oxide synthase inhibitors” (Bioorg Med Chem Lett, 2011).
The source made the active and inactive calls. The rule behind the calls is not given here.

Assays:
Nitric oxide synthase 1 = Nitric oxide synthase 1 (Homo sapiens, UniProt P29475); assay: Inhibition of recombinant human nNOS expressed in baculovirus infected insect Sf9 cells assessed as conversion of [3H]-L-arginine into [3H]-L-citrulline by radiometric method
Nitric oxide synthase 3 = biological target: T1, Nitric oxide synthase 3 (Homo sapiens, UniProt P29474); assay: Inhibition of recombinant human eNOS expressed in baculovirus infected insect Sf9 cells assessed as conversion of [3H]-L-arginine into [3H]-L-citrulline by radiometric method
T1 sequence (P29474 whole entry): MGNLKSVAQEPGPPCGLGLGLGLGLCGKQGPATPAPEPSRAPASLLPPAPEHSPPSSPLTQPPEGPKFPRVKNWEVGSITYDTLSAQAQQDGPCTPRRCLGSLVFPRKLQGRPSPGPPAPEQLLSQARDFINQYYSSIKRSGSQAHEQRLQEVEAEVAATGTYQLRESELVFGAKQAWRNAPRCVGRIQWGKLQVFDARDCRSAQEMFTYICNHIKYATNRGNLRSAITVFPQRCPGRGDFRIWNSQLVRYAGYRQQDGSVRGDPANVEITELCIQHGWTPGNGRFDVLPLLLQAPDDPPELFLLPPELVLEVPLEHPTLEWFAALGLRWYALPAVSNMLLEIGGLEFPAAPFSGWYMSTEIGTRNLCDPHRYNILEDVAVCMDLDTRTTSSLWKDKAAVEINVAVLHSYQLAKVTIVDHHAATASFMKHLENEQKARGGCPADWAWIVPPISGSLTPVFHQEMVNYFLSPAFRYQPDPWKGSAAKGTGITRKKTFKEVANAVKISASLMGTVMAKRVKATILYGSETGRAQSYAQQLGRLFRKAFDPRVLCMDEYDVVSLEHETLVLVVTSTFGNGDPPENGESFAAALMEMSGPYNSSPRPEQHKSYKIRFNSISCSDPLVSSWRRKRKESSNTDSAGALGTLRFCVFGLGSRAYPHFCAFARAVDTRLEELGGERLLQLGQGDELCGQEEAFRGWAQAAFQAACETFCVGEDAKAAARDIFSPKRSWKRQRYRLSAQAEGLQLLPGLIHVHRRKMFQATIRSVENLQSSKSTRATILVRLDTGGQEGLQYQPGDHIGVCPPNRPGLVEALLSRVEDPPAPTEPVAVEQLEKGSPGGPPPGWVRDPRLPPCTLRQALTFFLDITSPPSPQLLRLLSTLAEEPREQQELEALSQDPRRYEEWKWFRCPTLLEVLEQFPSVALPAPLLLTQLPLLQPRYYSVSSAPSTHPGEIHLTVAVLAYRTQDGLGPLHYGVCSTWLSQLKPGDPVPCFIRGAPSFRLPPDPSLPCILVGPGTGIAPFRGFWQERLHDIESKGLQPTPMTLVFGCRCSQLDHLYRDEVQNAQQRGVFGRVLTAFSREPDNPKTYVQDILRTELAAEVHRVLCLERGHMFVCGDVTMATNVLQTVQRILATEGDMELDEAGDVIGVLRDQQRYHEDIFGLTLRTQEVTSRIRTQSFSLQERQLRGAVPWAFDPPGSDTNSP

[1] = biological target: Nitric oxide synthase, inducible (Homo sapiens, UniProt P35228); assay: Inhibition of recombinant human iNOS expressed in baculovirus infected insect Sf9 cells assessed as conversion of [3H]-L-arginine into [3H]-L-citrulline by radiometric method
Homo sapiens = organism: Homo sapiens; assay: Selectivity ratio of IC50 for recombinant human eNOS to IC50 for recombinant human nNOS
[2] = biological target: Nitric oxide sythases; iNOS & nNOS (Homo sapiens) (UniProt P29475+P35228); assay: Selectivity ratio of IC50 for recombinant human iNOS to IC50 for recombinant human nNOS
Rattus norvegicus [3] = assay: Antiallodynic activity in Sprague-Dawley rat model of migraine pain assessed as attenuation of cutaneous allodynia in the hind-paws at 30 mg/kg, po administered 15 mins prior to application of inflammatory soup measured between 2 to 6 hrs; format: functional, organism-based; set-up: dose 30 mg/kg
Rattus norvegicus [4] = assay: Antiallodynic activity in Sprague-Dawley rat model of migraine pain assessed as attenuation of cutaneous allodynia in the hind-paws at 30 mg/kg, po administered 15 mins prior to application of inflammatory soup measured at 4 hrs; format: functional, organism-based; set-up: dose 30 mg/kg

Chain of Nitric oxide synthase 1 (P29475 whole entry): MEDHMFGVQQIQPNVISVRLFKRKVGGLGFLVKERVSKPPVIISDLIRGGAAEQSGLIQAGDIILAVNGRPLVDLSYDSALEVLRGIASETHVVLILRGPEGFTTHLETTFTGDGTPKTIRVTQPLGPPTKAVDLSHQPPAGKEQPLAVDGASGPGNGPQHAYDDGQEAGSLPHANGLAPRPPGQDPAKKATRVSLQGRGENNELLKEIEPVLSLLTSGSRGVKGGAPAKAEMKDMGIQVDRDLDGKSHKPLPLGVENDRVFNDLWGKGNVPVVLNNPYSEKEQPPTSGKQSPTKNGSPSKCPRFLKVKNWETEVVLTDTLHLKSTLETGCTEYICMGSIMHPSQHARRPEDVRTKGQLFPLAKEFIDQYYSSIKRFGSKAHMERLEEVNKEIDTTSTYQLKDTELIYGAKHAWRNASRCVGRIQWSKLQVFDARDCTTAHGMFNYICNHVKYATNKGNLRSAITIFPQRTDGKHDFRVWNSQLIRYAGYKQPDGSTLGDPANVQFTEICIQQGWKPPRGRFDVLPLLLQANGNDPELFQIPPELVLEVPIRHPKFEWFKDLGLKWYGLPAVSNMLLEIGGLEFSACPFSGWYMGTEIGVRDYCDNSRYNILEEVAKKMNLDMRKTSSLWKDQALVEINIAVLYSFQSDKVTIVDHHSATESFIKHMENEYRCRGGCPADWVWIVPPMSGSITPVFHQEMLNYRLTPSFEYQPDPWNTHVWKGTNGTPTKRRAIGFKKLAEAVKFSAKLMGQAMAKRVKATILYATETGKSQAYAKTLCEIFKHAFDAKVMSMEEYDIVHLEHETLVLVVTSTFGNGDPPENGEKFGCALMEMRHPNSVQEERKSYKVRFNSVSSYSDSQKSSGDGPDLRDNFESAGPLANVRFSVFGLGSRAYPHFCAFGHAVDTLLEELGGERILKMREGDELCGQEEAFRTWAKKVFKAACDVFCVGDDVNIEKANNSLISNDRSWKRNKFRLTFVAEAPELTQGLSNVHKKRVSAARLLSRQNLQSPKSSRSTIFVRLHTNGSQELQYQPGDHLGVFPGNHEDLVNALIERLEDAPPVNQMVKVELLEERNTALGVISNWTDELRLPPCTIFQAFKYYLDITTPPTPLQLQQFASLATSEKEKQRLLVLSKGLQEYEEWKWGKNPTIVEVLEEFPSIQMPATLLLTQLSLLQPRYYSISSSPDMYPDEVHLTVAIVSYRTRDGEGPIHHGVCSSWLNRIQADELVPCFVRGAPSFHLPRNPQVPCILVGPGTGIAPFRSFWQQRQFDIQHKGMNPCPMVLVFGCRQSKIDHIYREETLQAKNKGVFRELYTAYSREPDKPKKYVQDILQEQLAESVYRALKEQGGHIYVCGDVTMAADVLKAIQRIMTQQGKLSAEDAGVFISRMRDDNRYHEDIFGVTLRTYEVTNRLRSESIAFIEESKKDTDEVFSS
Chain of Nitric oxide sythases; iNOS & nNOS (Homo sapiens) (P29475 whole entry, looked up): as the sequence (P29475 whole entry) above
Chain of Nitric oxide sythases; iNOS & nNOS (Homo sapiens) (P35228 whole entry, looked up): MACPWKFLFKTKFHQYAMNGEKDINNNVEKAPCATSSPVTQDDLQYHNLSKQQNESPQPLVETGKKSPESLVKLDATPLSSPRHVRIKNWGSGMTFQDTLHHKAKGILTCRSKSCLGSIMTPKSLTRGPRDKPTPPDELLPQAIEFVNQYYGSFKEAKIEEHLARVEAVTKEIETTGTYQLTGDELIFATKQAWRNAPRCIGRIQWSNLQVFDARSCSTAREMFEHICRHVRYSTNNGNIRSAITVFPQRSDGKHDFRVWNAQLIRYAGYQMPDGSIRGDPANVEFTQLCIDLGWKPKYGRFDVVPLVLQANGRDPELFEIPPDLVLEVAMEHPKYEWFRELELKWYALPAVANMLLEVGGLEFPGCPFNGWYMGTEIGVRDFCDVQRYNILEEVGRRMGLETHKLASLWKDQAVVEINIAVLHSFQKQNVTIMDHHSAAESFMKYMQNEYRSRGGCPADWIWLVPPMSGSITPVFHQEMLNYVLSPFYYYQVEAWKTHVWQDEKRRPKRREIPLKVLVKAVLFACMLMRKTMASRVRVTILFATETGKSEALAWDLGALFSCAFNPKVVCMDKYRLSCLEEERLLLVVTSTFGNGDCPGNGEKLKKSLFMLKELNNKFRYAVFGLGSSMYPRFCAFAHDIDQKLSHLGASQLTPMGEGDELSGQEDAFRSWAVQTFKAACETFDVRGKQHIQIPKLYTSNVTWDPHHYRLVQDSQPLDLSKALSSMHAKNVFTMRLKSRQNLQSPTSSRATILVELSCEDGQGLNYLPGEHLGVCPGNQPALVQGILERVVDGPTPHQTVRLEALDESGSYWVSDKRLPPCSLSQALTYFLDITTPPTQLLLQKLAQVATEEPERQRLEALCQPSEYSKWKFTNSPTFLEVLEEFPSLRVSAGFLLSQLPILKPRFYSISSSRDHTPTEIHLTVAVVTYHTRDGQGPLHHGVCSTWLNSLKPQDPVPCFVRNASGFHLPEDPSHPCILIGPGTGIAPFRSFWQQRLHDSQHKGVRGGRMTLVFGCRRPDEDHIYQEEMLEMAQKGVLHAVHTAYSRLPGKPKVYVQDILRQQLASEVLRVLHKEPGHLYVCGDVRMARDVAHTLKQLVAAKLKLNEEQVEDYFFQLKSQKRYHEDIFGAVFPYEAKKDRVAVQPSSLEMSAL
Chain of Nitric oxide synthase, inducible (P35228 whole entry): as the sequence (P35228 whole entry, looked up) above

SMILES: CN1CCCC(n2ccc3ccc(NC(=N)c4ccco4)cc32)CC1 (stereo not drawn)
- IC50 (Nitric oxide synthase 1): 0.52 µM
- IC50 (Nitric oxide synthase 3): 30.6 µM
- IC50 [1]: 1.2 µM
- Ratio IC50 (Homo sapiens): 59
- Ratio IC50 [2]: 2

SMILES: CN1CCCC(n2ccc3ccc(NC(=N)c4cccs4)cc32)CC1 (stereo not drawn)
- IC50 (Nitric oxide synthase 3): 37.7 µM

SMILES: CN1CCCC1CCn1ccc2ccc(/N=C(\N)c3cccs3)cc21 (racemic)
- Ratio IC50 (Homo sapiens): 86
- Ratio IC50 [2]: 309

SMILES: N=C(Nc1ccc2ccn(CCCN3CCOCC3)c2c1)c1ccoc1
- IC50 [1]: > 100 µM

SMILES: N=C(Nc1ccc2ccn(CCCN3CCOCC3)c2c1)c1cccs1
- IC50 (Nitric oxide synthase 1): 0.7 µM
- IC50 (Nitric oxide synthase 3): 28.3 µM
- IC50 [1]: 82 µM

SMILES: N=C(Nc1ccc2ccn(CCN3CCCCC3)c2c1)c1cccs1
- IC50 [1]: 21 µM

SMILES: CN1CCC[C@H]1CCn1ccc2ccc(/N=C(\N)c3cccs3)cc21
- IC50 [1]: 72 µM
- Ratio IC50 (Homo sapiens): 120
- Ratio IC50 [2]: 360

SMILES: N=C(Nc1ccc2ccn(CCCN3CCCC3)c2c1)c1cccs1
- IC50 (Nitric oxide synthase 1): 0.45 µM
- IC50 (Nitric oxide synthase 3): 11.2 µM

SMILES: CNCCCn1ccc2ccc(NC(=N)c3cccs3)cc21
- IC50 (Nitric oxide synthase 3): 11.8 µM

SMILES: CN(C)CCn1ccc2ccc(N=C(N)c3cccs3)cc21
- IC50 [1]: 60 µM

SMILES: N/C(=N\c1ccc2ccn(CCCN3CCCC3)c2c1)c1cccs1
- Ratio IC50 (Homo sapiens): 25

SMILES: N/C(=N\c1ccc2ccn(CCCN3CCOCC3)c2c1)c1ccsc1
- Ratio IC50 (Homo sapiens): 12.1
- Ratio IC50 [2]: 50

SMILES: N=C(Nc1ccc2ccn(CCCN3CCOCC3)c2c1)c1ccco1
- IC50 [1]: 36 µM

SMILES: N/C(=N\c1ccc2ccn(CCCN3CCOCC3)c2c1)c1cccs1
- Ratio IC50 (Homo sapiens): 40
- Ratio IC50 [2]: 117

SMILES: N/C(=N\c1ccc2ccn(CCCN3CCOCC3)c2c1)c1ccoc1
- Ratio IC50 (Homo sapiens): 19

SMILES: N=C(Nc1ccc2ccn(CCCN3CCOCC3)c2c1)c1ccsc1
- IC50 [1]: 70 µM

SMILES: CCN(CC)CCCn1ccc2ccc(/N=C(\N)c3cccs3)cc21
- Ratio IC50 (Homo sapiens): 68

SMILES: N/C(=N\c1ccc2ccn(CCCN3CCOCC3)c2c1)c1ccco1
- Ratio IC50 (Homo sapiens): 14
- Ratio IC50 [2]: 15

SMILES: CN1CCCC(n2ccc3ccc(/N=C(\N)c4cccs4)cc32)CC1 (stereo not drawn)
- Ratio IC50 (Homo sapiens): 43

SMILES: CN1CCCC1CCn1ccc2ccc(NC(=N)c3cccs3)cc21 (racemic)
- IC50 (Nitric oxide synthase 1): 0.22 µM
- IC50 (Nitric oxide synthase 3): 19 µM
- IC50 [1]: 68 µM

SMILES: N/C(=N\c1ccc2ccn(CCCCn3ccnc3)c2c1)c1cccs1
- Ratio IC50 (Homo sapiens): 19

SMILES: CN(C)CCCCn1ccc2ccc(/N=C(\N)c3cccs3)cc21
- Ratio IC50 (Homo sapiens): 10
- Ratio IC50 [2]: 254

SMILES: CCN(CC)CCCn1ccc2ccc(NC(=N)c3cccs3)cc21
- IC50 (Nitric oxide synthase 1): 0.15 µM

SMILES: N=C(Nc1ccc2ccn(CCCCn3ccnc3)c2c1)c1cccs1
- IC50 (Nitric oxide synthase 3): 23 µM
- IC50 [1]: > 100 µM

SMILES: CN1CCC[C@@H]1CCn1ccc2ccc(/N=C(\N)c3cccs3)cc21
- IC50 [1]: 72 µM
- Ratio IC50 (Homo sapiens): 50
- Ratio IC50 [2]: 225
- Activity (Rattus norvegicus [3]): Active
- Activity (Rattus norvegicus [4]): Active

SMILES: CNCCCn1ccc2ccc(/N=C(\N)c3cccs3)cc21
- Ratio IC50 (Homo sapiens): 6

SMILES: CN(C)CCCCn1ccc2ccc(NC(=N)c3cccs3)cc21
- IC50 (Nitric oxide synthase 1): 0.26 µM
- IC50 (Nitric oxide synthase 3): 2.53 µM
- IC50 [1]: 66 µM

SMILES: N/C(=N\c1ccc2ccn(CCN3CCCCC3)c2c1)c1cccs1
- Ratio IC50 (Homo sapiens): 8
- Ratio IC50 [2]: 43

SMILES: CN(C)CCCn1ccc2ccc(NC(=N)c3cccs3)cc21
- IC50 (Nitric oxide synthase 3): 23.3 µM
